Results published in ChEMBL document CHEMBL5150076, “Discovery of Novel Orally Bioavailable Triazoles with Potent and Broad-Spectrum Antifungal Activity In Vitro and In Vivo” (J Med Chem, 2022).
In brackets after ≈: the same amount, converted by molar mass. Activity calls are given as the source filed them. The rule behind the calls is not given here.

Experiments:
[1] = target: T1, Lanosterol 14-alpha demethylase (Candida albicans (strain SC5314 / ATCC MYA-2876) (Yeast), UniProt P10613); assay: Inhibition of CYP51 in Candida albicans SC5314 assessed as ergosterol level at 0.0625 ug/ml measured after 12 hrs by GC-MS analysis (reference value: 72.58%); design: scale not given: the % may be the effect or the level left; conditions: dose 0.0625 µg/ml
T1 sequence (P10613 whole entry): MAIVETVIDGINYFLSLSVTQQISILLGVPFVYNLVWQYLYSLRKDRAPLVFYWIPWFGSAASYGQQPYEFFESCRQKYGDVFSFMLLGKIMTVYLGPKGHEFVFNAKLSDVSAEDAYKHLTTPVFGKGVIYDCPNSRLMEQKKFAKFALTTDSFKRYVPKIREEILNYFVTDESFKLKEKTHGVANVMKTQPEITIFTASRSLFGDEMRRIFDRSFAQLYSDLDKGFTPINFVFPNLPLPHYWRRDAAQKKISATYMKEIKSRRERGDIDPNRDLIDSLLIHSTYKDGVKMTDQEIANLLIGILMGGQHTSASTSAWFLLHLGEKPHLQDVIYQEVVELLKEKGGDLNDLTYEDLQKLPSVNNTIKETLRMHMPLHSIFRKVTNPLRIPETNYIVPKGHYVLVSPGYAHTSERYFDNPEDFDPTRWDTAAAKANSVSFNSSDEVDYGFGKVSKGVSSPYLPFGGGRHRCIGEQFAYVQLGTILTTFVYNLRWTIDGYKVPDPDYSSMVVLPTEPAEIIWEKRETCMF

Candida parapsilosis [2] = assay: Antifungal activity against Candida parapsilosis 660; type: functional; conditions: Lodderomyces parapsilosis
[3] = Oral bioavailability in Sprague-Dawley rat at 5 mg/kg by LC-MS analysis; type: ADME, organism-based; conditions: in vivo
Candida albicans [4] = assay: Antifungal activity against Candida albicans 14#; type: functional
Nakaseomyces glabratus [5] = assay: Antifungal activity against Candida glabrata ATCC2001; type: functional
Pichia kudriavzevii [6] = assay: Antifungal activity against Candida krusei 629; type: functional
Candida albicans [7] = assay: Inhibition of biofilm formation in Candida albicans SC5314 at 0.5 ug/ml relative to control; type: functional
Candida albicans [8] = assay: Inhibition of biofilm formation in Candida albicans SC5314 at 0.002 ug/ml relative to control; type: functional
[Candida] auris [9] = Antifungal activity against Candida auris D12; type: functional; conditions: Candidozyma auris
Aspergillus fumigatus [10] = assay: Antifungal activity against Aspergillus fumigatus 7544 infected in ICR mouse assessed as delay in mortality at 20 to 60 mg/kg, po qd infected with fungus for 2 hrs prior to compound addition for 7 days and measured for 20 days; type: functional, organism-based; conditions: dose 20-60 mg/kg, time 20.0 day
Candida albicans [11] = assay: Antifungal activity against Candida albicans SC5314 incubated for 24 hrs by microbroth dilution method; type: functional
Cryptococcus neoformans [12] = assay: Antifungal activity against Cryptococcus neoformans H99 infected in ICR mouse assessed as median survival time at 2 mg/kg, po qd infected with fungus for 2 hrs prior to compound addition for 7 days and measured for 20 days; type: functional; conditions: time 20 day
Nakaseomyces glabratus [13] = assay: Antifungal activity against Candida glabrata 537; type: functional
Candida albicans [14] = assay: Antifungal activity against Candida albicans 20#; type: functional
[15] = AUC(0 to infinity) in Sprague-Dawley rat at 2 mg/kg, iv by LC-MS analysis; type: ADME, organism-based; design: time infinity, dose 2 mg/kg, route iv; conditions: in vivo
Candida albicans [16] = assay: Antifungal activity against Candida albicans 12#; type: functional
Candida albicans [17] = assay: Antifungal activity against Candida albicans 162; type: functional
Cryptococcus neoformans [18] = assay: Antifungal activity against Cryptococcus neoformans H99 infected in ICR mouse assessed as delay in mortality at 0.5 to 5 mg/kg, po qd infected with fungus for 2 hrs prior to compound addition for 7 days and measured for 20 days; type: functional, organism-based; conditions: dose 0.5-5 mg/kg, time 20.0 day
Candida albicans [19] = assay: Antifungal activity against Candida albicans SC5314 infected in ICR mouse assessed as delay in mortality at 0.25 to 0.5 mg/kg, po qd infected with fungus for 2 hrs prior to compound addition for 7 days and measured for 20 days; type: functional, organism-based; conditions: dose 0.25-0.5 mg/kg, time 20.0 day
[20] = Clearance in Sprague-Dawley rat at 2 mg/kg, iv by LC-MS analysis; conditions: in vivo
Candida albicans [21] = assay: Antifungal activity against Candida albicans 100 infected in ICR mouse assessed as delay in mortality at 0.25 mg/kg, po qd infected with fungus for 2 hrs prior to compound addition for 7 days and measured for 20 days; type: functional, organism-based; conditions: time 20.0 day
Cryptococcus neoformans [22] = assay: Antifungal activity against Cryptococcus neoformans H99 infected in po dosed ICR mouse assessed as increase in survival infected with fungus for 2 hrs prior to compound addition for 7 days and measured for 20 days; type: functional, organism-based; conditions: dose 0.5-5 mg/kg, time 20.0 day, DDE = dose-dependent effect
Cryptococcus neoformans [23] = assay: Antifungal activity against Cryptococcus neoformans H99 infected in ICR mouse assessed as median survival time at 0.5 mg/kg, po qd infected with fungus for 2 hrs prior to compound addition for 7 days and measured for 20 days; type: functional; conditions: time 20 day
[24] = Tmax in Sprague-Dawley rat at 5 mg/kg, po by LC-MS analysis; type: ADME, organism-based; conditions: in vivo
[25] = AUC(0 to infinity) in Sprague-Dawley rat at 5 mg/kg, po by LC-MS analysis; type: ADME, organism-based; design: time infinity, dose 5 mg/kg, route po; conditions: in vivo
[26] = Induction of hemolysis in rabbit RBC at 64 ug/ml incubated for 1 hr; type: toxicity, cell-based, Oryctolagus cuniculus, Erythrocyte; conditions: red blood cells, dose 64 µg/ml, read-out: Activity
[27] = Half life in Sprague-Dawley rat at 2 mg/kg, iv by LC-MS analysis; type: ADME, organism-based; conditions: in vivo
[28] = target: T1, Lanosterol 14-alpha demethylase; assay: Inhibition of CYP51 in Candida albicans SC5314 assessed as sterol level at 0.0625 ug/ml measured after 12 hrs by GC-MS analysis (reference value: 25.23%); design: scale not given: the % may be the effect or the level left; conditions: dose 0.0625 µg/ml
Nannizzia gypsea = assay: Antifungal activity against Microsporum gypseum; type: functional
[29] = Half life in Sprague-Dawley rat at 5 mg/kg, po by LC-MS analysis; type: ADME, organism-based; conditions: in vivo
Aspergillus fumigatus [30] = assay: Antifungal activity against Aspergillus fumigatus 7544 infected in ICR mouse assessed as survival rate at 60 mg/kg, po qd infected with fungus for 2 hrs prior to compound addition for 7 days and measured for 20 days; type: functional; conditions: time 20 day
Aspergillus fumigatus [31] = assay: Antifungal activity against Aspergillus fumigatus 7544 incubated for 48 hrs by microbroth dilution method; type: functional
Cryptococcus neoformans [32] = assay: Antifungal activity against Cryptococcus neoformans 32605; type: functional
[33] = target: T1, Lanosterol 14-alpha demethylase; assay: Inhibition of CYP51 in Candida albicans SC5314 assessed as ergosterol level at 0.5 ug/ml measured after 12 hrs by GC-MS analysis (reference value: 72.58%); design: scale not given: the % may be the effect or the level left; conditions: at 0.5 µg/mL
Candida albicans [34] = assay: Inhibition of biofilm formation in Candida albicans SC5314; type: functional, organism-based; conditions: dose 0.002-0.5 µg/ml, DDE = dose-dependent effect
Candida albicans [35] = assay: Antifungal activity against Candida albicans SC5314 infected in ICR mouse assessed as median survival time at 0.5 mg/kg, po qd infected with fungus for 2 hrs prior to compound addition for 7 days and measured for 20 days; type: functional; conditions: time 20 day
[Candida] auris [36] = Antifungal activity against Candida auris 887; type: functional; conditions: Candidozyma auris
Cryptococcus neoformans [37] = assay: Antifungal activity against Cryptococcus neoformans H99 incubated for 72 hrs by microbroth dilution method; type: functional
Candida albicans [38] = assay: Antifungal activity against Candida albicans 305; type: functional
[Candida] auris [39] = Antifungal activity against Candida auris 791; type: functional; conditions: Candidozyma auris
[40] = target: T1, Lanosterol 14-alpha demethylase; assay: Inhibition of CYP51 in Candida albicans SC5314 assessed as eburicol level at 0.0625 ug/ml measured after 12 hrs by GC-MS analysis (reference value: 0.00%); design: scale not given: the % may be the effect or the level left; conditions: dose 0.0625 µg/ml
Cryptococcus neoformans [41] = assay: Antifungal activity against Cryptococcus neoformans H99 infected in ICR mouse assessed as median survival time at 1 mg/kg, po qd infected with fungus for 2 hrs prior to compound addition for 7 days and measured for 20 days; type: functional; conditions: time 20 day
Candida parapsilosis [42] = assay: Antifungal activity against Candida parapsilosis 90018; type: functional; conditions: Lodderomyces parapsilosis
Cryptococcus neoformans [43] = assay: Antifungal activity against Cryptococcus neoformans H99 infected in ICR mouse assessed as median survival time at 5 mg/kg, po qd infected with fungus for 2 hrs prior to compound addition for 7 days and measured for 20 days; type: functional; conditions: time 20 day
[44] = Induction of drug resistance in Candida albicans SC5314 assessed as increase in MIC after 2 weeks (reference value: 0.008 microg/ml); type: functional; conditions: SC5314, 336 h
Pichia kudriavzevii [45] = assay: Antifungal activity against Candida krusei 463; type: functional
Candida parapsilosis [46] = assay: Antifungal activity against Candida parapsilosis 22019; type: functional; conditions: Lodderomyces parapsilosis

Compound: C[C@@H](c1cn(-c2ccc(Cl)cc2F)nn1)[C@](O)(Cn1cncn1)c1ccc(F)cc1F
- Activity [1]: 0.76%
- MIC (Candida parapsilosis [2]): ≤ 0.0313 mg/L
- bioavailability [3]: 34%
- MIC (Candida albicans [4]): 8 mg/L (≈ 17.8 µM)
- MIC (Nakaseomyces glabratus [5]): 0.125 mg/L (≈ 0.278 µM)
- MIC (Pichia kudriavzevii [6]): 0.25 mg/L (≈ 0.557 µM)
- inhibition at 0.5 µg/mL (Candida albicans [7]): 80%
- inhibition at 0.002 µg/mL (Candida albicans [8]): 20%
- MIC ([Candida] auris [9]): 1 mg/L (≈ 2.23 µM)
- Activity (Aspergillus fumigatus [10]): Active
- MIC (Candida albicans [11]): 0.0625 mg/L (≈ 0.139 µM)
- Time (Cryptococcus neoformans [12]): 8.5 days
- MIC (Nakaseomyces glabratus [13]): 0.0625 mg/L (≈ 0.139 µM)
- MIC (Candida albicans [14]): ≤ 0.0313 mg/L
- AUC(0-inf) [15]: 8.41 µg·h/mL
- MIC (Candida albicans [16]): 16 mg/L (≈ 35.6 µM)
- MIC (Candida albicans [17]): 8 mg/L (≈ 17.8 µM)
- Activity (Cryptococcus neoformans [18]): Active
- Activity (Candida albicans [19]): Active
- clearance [20]: 0.119 L/h/kg
- Activity (Candida albicans [21]): Active
- Activity (Cryptococcus neoformans [22]): Dde
- Time (Cryptococcus neoformans [23]): 10.5 days
- Tmax [24]: 2.71 h
- AUC(0-inf) [25]: 3.86 µg·h/mL
- hemolysis at 1 h, 64 ug/ml [26]: 0.3%
- half-life [27]: 4.5 h
- Activity [28]: 3.82%
- MIC (Nannizzia gypsea): 1 mg/L (≈ 2.23 µM)
- half-life [29]: 1.4 h
- Activity (Aspergillus fumigatus [30]): 100%
- MIC (Aspergillus fumigatus [31]): 1 mg/L (≈ 2.23 µM)
- MIC (Cryptococcus neoformans [32]): 0.0156 mg/L (≈ 0.0348 µM)
- Activity [33]: 74.56%
- inhibition (Candida albicans [34]): Dde
- Time (Candida albicans [35]): 17 days
- MIC ([Candida] auris [36]): 1 mg/L (≈ 2.23 µM)
- MIC (Cryptococcus neoformans [37]): 0.0313 mg/L (≈ 0.0697 µM)
- MIC (Candida albicans [38]): 8 mg/L (≈ 17.8 µM)
- MIC ([Candida] auris [39]): 1 mg/L (≈ 2.23 µM)
- Activity [40]: 88.96%
- Time (Cryptococcus neoformans [41]): 14 days
- MIC (Candida parapsilosis [42]): ≤ 0.0313 mg/L
- Time (Cryptococcus neoformans [43]): 18 days
- MIC [44]: 0.313 mg/L
- MIC (Pichia kudriavzevii [45]): 0.125 mg/L (≈ 0.278 µM)
- MIC (Candida parapsilosis [46]): 0.0625 mg/L (≈ 0.139 µM)
